Test results taken from ChEMBL document CHEMBL5260845, “Flavone-based arylamides as potential anticancers: Design, synthesis and in vitro cell-based/cell-free evaluations” (2020).
Blank lines part the entries; values can stand above or below the compound they belong to. Active and inactive are the calls of the source. No cut-off for these calls is given here.

Key:
[1] = target: Mitogen-activated protein kinase kinase kinase 14 (Homo sapiens) (UniProt Q99558); assay: Inhibition of MAP3K14 (unknown origin) at 10 uM by biochemical hotspot kinase assay relative to control
[2] = target: Fibroblast growth factor receptor 1 (Homo sapiens) (UniProt P11362); assay: Inhibition of FGFR1 (unknown origin) at 10 uM by biochemical hotspot kinase assay relative to control
[3] = test system: HCC 2998; assay: Antiproliferative activity against human HCC 2998 cells assessed as cell growth inhibition at 10 uM by SRB assay relative to control; format: functional
[4] = test system: A498; assay: Antiproliferative activity against human A498 cells assessed as inhibition of cell growth at 10 uM by SRB assay relative to control; format: functional
[5] = test system: CCRF-CEM; assay: Antiproliferative activity against human CCRF-CEM cells assessed as cell growth inhibition at 10 uM by SRB assay; format: functional, cell-based
[6] = target: Cyclin-dependent kinase 1/cyclin B (Homo sapiens) (UniProt P06493+P14635+Q8WWL7+O95067); assay: Inhibition of CDK1/cyclin B (unknown origin) at 10 uM by biochemical hotspot kinase assay; format: protein-complex assay
[7] = target: Wee1-like protein kinase (Homo sapiens) (UniProt P30291); assay: Inhibition of WEE1 (unknown origin) at 10 uM by biochemical hotspot kinase assay
[8] = target: Serine/threonine-protein kinase PAK 2 (Homo sapiens) (UniProt Q13177); assay: Inhibition of PAK2 (unknown origin) at 10 uM by biochemical hotspot kinase assay
[9] = target: RAC-alpha serine/threonine-protein kinase (Homo sapiens) (UniProt P31749); assay: Inhibition of AKT1 (unknown origin) at 10 uM by biochemical hotspot kinase assay relative to control
[10] = target: Serine/threonine-protein kinase pim-1 (Homo sapiens) (UniProt P11309); assay: Inhibition of PIM1 (unknown origin) at 10 uM by biochemical hotspot kinase assay relative to control
[11] = target: Aurora kinase A (Homo sapiens) (UniProt O14965); assay: Inhibition of Aurora A (unknown origin) at 10 uM by biochemical hotspot kinase assay
[12] = test system: KM12; assay: Antiproliferative activity against human KM12 cells assessed as cell growth inhibition at 10 uM by SRB assay; format: functional, cell-based
[13] = target: High affinity nerve growth factor receptor (Homo sapiens) (UniProt P04629); assay: Inhibition of TrkA (unknown origin) at 10 uM by biochemical hotspot kinase assay
[14] = test system: HT-29; assay: Induction of cell cycle arrest in human HT-29 cells assessed as accumulation of cells at G1 phase at 2.5 uM incubated for 24 hrs by PI staining based analysis (reference value: 40.3%); format: functional
[15] = target: Fibroblast growth factor receptor 2 (Homo sapiens) (UniProt P21802); assay: Inhibition of FGFR2 (unknown origin) at 10 uM by biochemical hotspot kinase assay
[16] = test system: OVCAR-3; assay: Antiproliferative activity against human OVCAR-3 cells assessed as cell growth inhibition at 10 uM by SRB assay relative to control; format: functional; conditions: pooled result: one value given for 2 cell lines, strains, targets or settings
[17] = target: Serine/threonine-protein kinase Chk1 (Homo sapiens) (UniProt O14757); assay: Inhibition of CHK1 (unknown origin) at 10 uM by biochemical hotspot kinase assay
[18] = target: Mitogen-activated protein kinase kinase kinase kinase 4 (Homo sapiens) (UniProt O95819); assay: Inhibition of HGK (unknown origin) at 10 uM by biochemical hotspot kinase assay relative to control
[19] = test system: NCI-H226; assay: Antiproliferative activity against human NCI-H226 cells assessed as cell growth inhibition at 10 uM by SRB assay; format: functional
[20] = target: Mitogen-activated protein kinase kinase kinase 8 (Homo sapiens) (UniProt P41279); assay: Inhibition of MAP3K8 (unknown origin) at 10 uM by biochemical hotspot kinase assay relative to control
[21] = target: Proto-oncogene tyrosine-protein kinase Src (Homo sapiens) (UniProt P12931); assay: Inhibition of c-Src (unknown origin) at 10 uM by biochemical hotspot kinase assay
[22] = target: Interleukin-1 receptor-associated kinase 4 (Homo sapiens) (UniProt Q9NWZ3); assay: Inhibition of IRAK4 (unknown origin) at 10 uM by biochemical hotspot kinase assay
[23] = target: Serine/threonine-protein kinase Chk2 (Homo sapiens) (UniProt O96017); assay: Inhibition of CHK2 (unknown origin) at 10 uM by biochemical hotspot kinase assay relative to control
[24] = target: Serine/threonine-protein kinase PAK 1 (Homo sapiens) (UniProt Q13153); assay: Inhibition of PAK1 (unknown origin) at 10 uM by biochemical hotspot kinase assay
[25] = test system: RXF 393; assay: Antiproliferative activity against human RXF 393 cells assessed as inhibition of cell growth at 10 uM by SRB assay relative to control; format: functional
[26] = target: Ribosomal protein S6 kinase alpha-1 (Homo sapiens) (UniProt Q15418); assay: Inhibition of RSK1 (unknown origin) at 10 uM by biochemical hotspot kinase assay
[27] = test system: HCT-15; assay: Antiproliferative activity against human HCT-15 cells assessed as cell growth inhibition at 10 uM by SRB assay; format: functional, cell-based
[28] = target: Calcium/calmodulin-dependent protein kinase type II subunit beta (Homo sapiens) (UniProt Q13554); assay: Inhibition of CAMK2B (unknown origin) at 10 uM by biochemical hotspot kinase assay relative to control
[29] = target: Vascular endothelial growth factor receptor 3 (Homo sapiens) (UniProt P35916); assay: Inhibition of VEGFR3 (unknown origin) at 10 uM by biochemical hotspot kinase assay relative to control
[30] = target: Homeodomain-interacting protein kinase 1 (Homo sapiens) (UniProt Q86Z02); assay: Inhibition of HIPK1 (unknown origin) at 10 uM by biochemical hotspot kinase assay
[31] = test system: RPMI-8226; assay: Antiproliferative activity against human RPMI-8226 cells assessed as cell growth inhibition by SRB assay; format: functional
[32] = target: Epidermal growth factor receptor (Homo sapiens) (UniProt P00533); assay: Inhibition of EGFR (unknown origin) at 10 uM by biochemical hotspot kinase assay
[33] = test system: ACHN; assay: Antiproliferative activity against human ACHN cells assessed as inhibition of cell growth at 10 uM by SRB assay relative to control; format: functional; conditions: pooled result: one value given for 2 cell lines, strains, targets or settings
[34] = target: Mitogen-activated protein kinase 15 (Homo sapiens) (UniProt Q8TD08); assay: Inhibition of ERK7 (unknown origin) at 10 uM by biochemical hotspot kinase assay
[35] = test system: A549; assay: Antiproliferative activity against human A549 cells assessed as cell growth inhibition at 10 uM by SRB assay relative to control; format: functional
[36] = test system: SK-OV-3; assay: Antiproliferative activity against human SK-OV-3 cells assessed as inhibition of cell growth at 10 uM by SRB assay relative to control; format: functional
[37] = test system: HOP-62; assay: Antiproliferative activity against human HOP-62 cells assessed as cell growth inhibition at 10 uM by SRB assay relative to control; format: functional
[38] = test system: NCI-H460; assay: Antiproliferative activity against human NCI-H460 cells assessed as cell growth inhibition at 10 uM by SRB assay relative to control; format: functional

Sequence of Interleukin-1 receptor-associated kinase 4 (Homo sapiens) (Q9NWZ3 whole entry): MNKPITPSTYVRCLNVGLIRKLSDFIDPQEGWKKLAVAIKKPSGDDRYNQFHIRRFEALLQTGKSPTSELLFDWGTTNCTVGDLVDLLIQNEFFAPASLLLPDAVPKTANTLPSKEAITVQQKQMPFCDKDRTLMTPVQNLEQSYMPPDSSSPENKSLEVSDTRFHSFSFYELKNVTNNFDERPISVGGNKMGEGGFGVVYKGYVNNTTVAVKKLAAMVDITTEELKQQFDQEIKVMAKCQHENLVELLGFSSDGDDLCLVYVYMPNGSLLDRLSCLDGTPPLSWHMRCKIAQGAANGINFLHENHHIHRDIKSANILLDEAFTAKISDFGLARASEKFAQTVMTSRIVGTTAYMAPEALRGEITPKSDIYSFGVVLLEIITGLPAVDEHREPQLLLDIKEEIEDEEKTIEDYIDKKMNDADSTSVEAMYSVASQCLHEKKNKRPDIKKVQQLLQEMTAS
Sequence of Vascular endothelial growth factor receptor 3 (Homo sapiens) (P35916 whole entry): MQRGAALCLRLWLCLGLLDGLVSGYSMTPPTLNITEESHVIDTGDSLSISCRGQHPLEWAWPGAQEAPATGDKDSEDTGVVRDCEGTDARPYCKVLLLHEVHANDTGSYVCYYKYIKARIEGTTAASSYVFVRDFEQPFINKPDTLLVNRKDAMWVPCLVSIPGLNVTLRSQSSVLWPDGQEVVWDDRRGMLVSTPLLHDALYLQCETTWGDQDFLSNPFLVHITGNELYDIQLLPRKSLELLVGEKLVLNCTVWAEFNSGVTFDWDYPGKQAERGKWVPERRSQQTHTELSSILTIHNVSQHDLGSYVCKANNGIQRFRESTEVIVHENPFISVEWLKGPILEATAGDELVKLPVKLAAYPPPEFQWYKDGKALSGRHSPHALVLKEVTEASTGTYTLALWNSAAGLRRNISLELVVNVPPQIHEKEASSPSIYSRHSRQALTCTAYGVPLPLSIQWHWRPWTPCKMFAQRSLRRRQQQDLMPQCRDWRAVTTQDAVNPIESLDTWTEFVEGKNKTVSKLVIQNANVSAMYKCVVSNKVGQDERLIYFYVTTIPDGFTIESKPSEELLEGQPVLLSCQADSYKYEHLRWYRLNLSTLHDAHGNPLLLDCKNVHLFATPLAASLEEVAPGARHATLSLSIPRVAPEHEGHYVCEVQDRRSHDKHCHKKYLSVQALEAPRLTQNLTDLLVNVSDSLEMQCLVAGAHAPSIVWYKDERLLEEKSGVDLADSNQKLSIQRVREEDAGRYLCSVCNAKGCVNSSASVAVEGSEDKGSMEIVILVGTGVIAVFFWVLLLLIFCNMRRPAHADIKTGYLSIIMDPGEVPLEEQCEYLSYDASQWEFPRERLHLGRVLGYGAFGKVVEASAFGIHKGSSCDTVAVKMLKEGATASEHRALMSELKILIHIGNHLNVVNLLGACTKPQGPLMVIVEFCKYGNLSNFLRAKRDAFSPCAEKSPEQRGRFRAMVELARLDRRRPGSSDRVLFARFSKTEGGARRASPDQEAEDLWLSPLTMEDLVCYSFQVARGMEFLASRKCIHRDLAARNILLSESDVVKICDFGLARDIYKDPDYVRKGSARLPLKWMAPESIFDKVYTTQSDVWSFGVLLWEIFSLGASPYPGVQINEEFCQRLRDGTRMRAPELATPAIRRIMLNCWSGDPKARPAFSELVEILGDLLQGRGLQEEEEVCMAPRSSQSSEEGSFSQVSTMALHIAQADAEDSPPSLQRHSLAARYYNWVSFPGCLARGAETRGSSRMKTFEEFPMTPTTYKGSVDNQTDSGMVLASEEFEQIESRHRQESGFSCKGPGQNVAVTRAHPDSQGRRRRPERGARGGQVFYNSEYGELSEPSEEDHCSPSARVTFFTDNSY
Sequence of Ribosomal protein S6 kinase alpha-1 (Homo sapiens) (Q15418 whole entry): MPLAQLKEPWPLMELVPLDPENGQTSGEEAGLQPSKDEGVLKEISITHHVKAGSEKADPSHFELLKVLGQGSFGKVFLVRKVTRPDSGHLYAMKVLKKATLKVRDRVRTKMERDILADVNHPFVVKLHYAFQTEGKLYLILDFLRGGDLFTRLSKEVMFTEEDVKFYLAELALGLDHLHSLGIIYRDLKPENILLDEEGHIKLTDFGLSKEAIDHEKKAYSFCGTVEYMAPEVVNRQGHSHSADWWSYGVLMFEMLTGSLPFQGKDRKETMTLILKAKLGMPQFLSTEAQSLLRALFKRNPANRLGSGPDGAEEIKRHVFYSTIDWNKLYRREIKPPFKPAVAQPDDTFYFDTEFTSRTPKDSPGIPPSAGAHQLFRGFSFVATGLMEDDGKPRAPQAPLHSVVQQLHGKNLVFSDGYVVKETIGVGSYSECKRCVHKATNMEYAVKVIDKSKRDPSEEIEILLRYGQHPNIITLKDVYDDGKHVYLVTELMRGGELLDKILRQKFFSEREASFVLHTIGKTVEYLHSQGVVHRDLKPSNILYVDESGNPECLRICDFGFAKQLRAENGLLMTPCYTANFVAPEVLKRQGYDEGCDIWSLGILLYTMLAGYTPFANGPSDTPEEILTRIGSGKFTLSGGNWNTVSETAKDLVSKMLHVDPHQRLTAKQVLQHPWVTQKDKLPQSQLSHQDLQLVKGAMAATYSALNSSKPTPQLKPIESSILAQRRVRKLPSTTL
Sequence of Serine/threonine-protein kinase Chk1 (Homo sapiens) (O14757 whole entry): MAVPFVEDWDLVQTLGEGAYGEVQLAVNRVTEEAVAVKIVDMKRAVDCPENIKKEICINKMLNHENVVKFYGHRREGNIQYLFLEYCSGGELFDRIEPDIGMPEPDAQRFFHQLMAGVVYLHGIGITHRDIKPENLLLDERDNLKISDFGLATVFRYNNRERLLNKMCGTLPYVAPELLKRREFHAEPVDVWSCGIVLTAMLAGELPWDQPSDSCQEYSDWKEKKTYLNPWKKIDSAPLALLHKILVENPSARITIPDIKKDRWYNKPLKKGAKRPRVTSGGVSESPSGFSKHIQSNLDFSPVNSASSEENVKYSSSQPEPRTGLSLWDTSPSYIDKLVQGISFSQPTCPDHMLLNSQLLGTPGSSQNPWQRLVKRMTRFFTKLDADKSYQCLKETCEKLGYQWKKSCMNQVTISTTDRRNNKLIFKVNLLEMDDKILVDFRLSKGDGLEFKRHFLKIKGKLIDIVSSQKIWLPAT
Sequence of Mitogen-activated protein kinase kinase kinase kinase 4 (Homo sapiens) (O95819 2-1239 limits assumed): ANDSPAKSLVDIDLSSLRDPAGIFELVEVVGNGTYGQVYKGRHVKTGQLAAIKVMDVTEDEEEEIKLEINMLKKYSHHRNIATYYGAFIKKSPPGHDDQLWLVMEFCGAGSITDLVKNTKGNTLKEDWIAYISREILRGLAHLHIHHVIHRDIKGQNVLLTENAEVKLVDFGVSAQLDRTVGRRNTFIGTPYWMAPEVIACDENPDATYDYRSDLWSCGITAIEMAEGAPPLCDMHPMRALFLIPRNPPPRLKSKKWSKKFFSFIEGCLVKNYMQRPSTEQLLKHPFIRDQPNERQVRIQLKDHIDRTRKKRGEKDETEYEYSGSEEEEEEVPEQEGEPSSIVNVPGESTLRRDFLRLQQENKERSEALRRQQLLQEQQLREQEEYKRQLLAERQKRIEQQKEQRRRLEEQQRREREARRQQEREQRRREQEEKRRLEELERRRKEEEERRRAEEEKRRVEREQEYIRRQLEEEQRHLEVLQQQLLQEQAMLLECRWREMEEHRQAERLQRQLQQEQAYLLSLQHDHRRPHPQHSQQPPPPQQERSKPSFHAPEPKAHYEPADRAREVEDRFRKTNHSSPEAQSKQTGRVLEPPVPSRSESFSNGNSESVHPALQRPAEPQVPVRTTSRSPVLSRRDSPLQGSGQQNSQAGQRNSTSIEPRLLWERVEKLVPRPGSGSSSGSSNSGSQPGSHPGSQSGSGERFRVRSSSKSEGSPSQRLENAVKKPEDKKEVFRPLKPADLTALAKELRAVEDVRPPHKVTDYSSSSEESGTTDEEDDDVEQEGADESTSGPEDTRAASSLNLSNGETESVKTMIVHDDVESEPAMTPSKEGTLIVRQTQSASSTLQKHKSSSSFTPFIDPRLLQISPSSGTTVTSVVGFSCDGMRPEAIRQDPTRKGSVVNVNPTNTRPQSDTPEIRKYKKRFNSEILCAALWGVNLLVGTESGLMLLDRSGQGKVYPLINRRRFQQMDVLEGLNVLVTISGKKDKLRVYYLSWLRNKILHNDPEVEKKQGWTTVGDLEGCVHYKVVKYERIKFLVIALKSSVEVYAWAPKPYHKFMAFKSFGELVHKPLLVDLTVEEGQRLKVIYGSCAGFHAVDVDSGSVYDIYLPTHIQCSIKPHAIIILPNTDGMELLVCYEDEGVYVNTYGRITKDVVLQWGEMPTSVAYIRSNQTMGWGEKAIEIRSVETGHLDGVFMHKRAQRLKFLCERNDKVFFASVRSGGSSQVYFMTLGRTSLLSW
Sequence of Mitogen-activated protein kinase kinase kinase 8 (Homo sapiens) (P41279 whole entry): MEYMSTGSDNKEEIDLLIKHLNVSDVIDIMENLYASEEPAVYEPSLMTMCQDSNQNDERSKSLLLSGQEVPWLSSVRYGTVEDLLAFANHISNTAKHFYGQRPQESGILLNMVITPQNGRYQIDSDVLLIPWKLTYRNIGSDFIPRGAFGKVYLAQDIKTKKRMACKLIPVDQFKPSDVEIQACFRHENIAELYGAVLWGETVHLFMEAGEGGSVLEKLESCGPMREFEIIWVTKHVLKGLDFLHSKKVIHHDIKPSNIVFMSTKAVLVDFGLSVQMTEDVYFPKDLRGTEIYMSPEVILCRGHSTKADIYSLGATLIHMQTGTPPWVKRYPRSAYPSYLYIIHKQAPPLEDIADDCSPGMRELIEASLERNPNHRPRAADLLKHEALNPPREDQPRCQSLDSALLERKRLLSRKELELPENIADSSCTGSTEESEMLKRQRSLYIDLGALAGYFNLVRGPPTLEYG
Sequence of Serine/threonine-protein kinase pim-1 (Homo sapiens) (P11309 whole entry, looked up): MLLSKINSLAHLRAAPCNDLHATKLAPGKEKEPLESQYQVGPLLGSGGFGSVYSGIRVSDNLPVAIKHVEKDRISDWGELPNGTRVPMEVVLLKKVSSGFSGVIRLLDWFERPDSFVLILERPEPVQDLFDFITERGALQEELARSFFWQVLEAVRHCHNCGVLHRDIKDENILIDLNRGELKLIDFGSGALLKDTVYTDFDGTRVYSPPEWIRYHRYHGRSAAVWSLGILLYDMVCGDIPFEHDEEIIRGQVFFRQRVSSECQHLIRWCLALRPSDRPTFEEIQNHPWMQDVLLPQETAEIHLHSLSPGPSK

inhibition [1]: 20.9%
inhibition [2]: 16.5%
inhibition [6]: inactive
inhibition [7]: inactive
inhibition [8]: inactive
inhibition [9]: 2.36%
inhibition [10]: 6.26%
inhibition [11]: inactive
inhibition [13]: inactive
inhibition [15]: inactive
inhibition [17]: inactive
inhibition [18]: 48.8%
inhibition [20]: 3.13%
inhibition [21]: inactive
inhibition [22]: inactive
inhibition [23]: 6.31%
inhibition [24]: inactive
inhibition [26]: inactive
inhibition [28]: 1.99%
inhibition [29]: 8.65%
inhibition [30]: inactive
GI50 [31]: 370 nM
inhibition [32]: inactive
Structure (SMILES): COc1cc2oc(-c3cccc(C(=O)Nc4ccc(C)cc4)c3)cc(=O)c2c(OC)c1OC
inhibition at 10 µM [3]: 50.1%
inhibition at 10 µM [4]: 94%
inhibition [5]: Active
inhibition [12]: Active
Activity [14]: 55.4%
inhibition at 10 µM [16]: 51.8%
inhibition [19]: Active
inhibition [25]: Active
inhibition [27]: Active
inhibition at 10 µM [33]: 55.7%
inhibition [34]: inactive

GI50 [31]: 490 nM
Structure (SMILES): COc1cc2oc(-c3cccc(C(=O)Nc4ccc(Cl)cc4)c3)cc(=O)c2c(OC)c1OC
inhibition at 10 µM [3]: 77.4%
inhibition [5]: Active
inhibition at 10 µM [35]: 74.8%
inhibition [12]: Active
inhibition at 10 µM [16]: 56.9%
inhibition at 10 µM [36]: 56.9%
inhibition [19]: Active
inhibition at 10 µM [25]: 129%
inhibition [27]: Active
inhibition at 10 µM [37]: 87.2%
inhibition at 10 µM [33]: 61.4%
inhibition at 10 µM [38]: 74.8%
